Experimental data from ChEMBL document CHEMBL4219106, “Discovery and optimization of tetrahydropyrido[4,3-d]pyrimidine derivatives as novel ATX and EGFR dual inhibitors” (Bioorg Med Chem, 2018).
Active and inactive are the calls of the source. The calls are words filed in the database; no cut-off is given here.

Experiments:
[1] = Antifibrotic activity against Wistar rat cardiac fibroblasts assessed as inhibition of cell proliferation at 20 uM after 12 hrs by MTT assay relative to control; assay type: functional
[2] = system: RAW264.7; test: Anti-inflammatory activity in mouse RAW264.7 cells assessed as inhibition of LPS-induced NO production by measuring NO level at 10 ug/ml preincubated for 1 hr followed by LPS-stimulation measured after 24 hrs by Griess assay; assay type: functional
[3] = system: A549; test: Cytotoxicity against human A549 cells assessed as reduction in cell viability after 72 hrs by MTT assay; assay type: functional, cell-based; settings: A549, 72 h
[4] = system: RAW264.7; test: Anti-inflammatory activity in mouse RAW264.7 cells assessed as inhibition of LPS-induced NO production by measuring NO level at 5 ug/ml preincubated for 1 hr followed by LPS-stimulation measured after 24 hrs by Griess assay; assay type: functional
[5] = system: RAW264.7; test: Anti-inflammatory activity in mouse RAW264.7 cells assessed as inhibition of LPS-induced NO production by measuring NO level at 2.5 ug/ml preincubated for 1 hr followed by LPS-stimulation measured after 24 hrs by Griess assay; assay type: functional
[6] = Cytotoxicity against human SGC cells assessed as reduction in cell viability after 72 hrs by MTT assay; assay type: functional, cell-based
[7] = system: NCI-H1975; test: Cytotoxicity against human NCI-H1975 cells assessed as reduction in cell viability after 72 hrs by MTT assay; assay type: functional, cell-based; settings: NCI-H1975, 72 h
[8] = system: MKN-45; test: Cytotoxicity against human MKN45 cells assessed as reduction in cell viability after 72 hrs by MTT assay; assay type: functional, cell-based; settings: MKN-45, 72 h
[9] = Inhibition of ATX (unknown origin); design: species or system Homo sapiens
[10] = Inhibition of glycosylated human ATX using substrate FS-3 preincubated for 45 mins followed by substrate addition measured after 45 mins by fluorescence assay
[11] = biological target: Vascular endothelial growth factor receptor 2 (Homo sapiens, UniProt P35968); test: Inhibition of VEGFR2 (unknown origin) using peptide substrate after 60 mins by HTRF assay
[12] = Potency index, ratio of gefitinib IC50 to compound IC50 for human SGC cells; assay type: functional
[13] = system: A549; test: Potency index, ratio of gefitinib IC50 to compound IC50 for human A549 cells; assay type: functional
[14] = biological target: Epidermal growth factor receptor (Homo sapiens, UniProt P00533, L858R/T790M); test: Inhibition of EGFR T790M/L858R double mutant (unknown origin) using peptide substrate after 60 mins by HTRF assay
[15] = biological target: Epidermal growth factor receptor (Homo sapiens, UniProt P00533); test: Inhibition of EGFR (unknown origin) using peptide substrate after 60 mins by HTRF assay
[16] = system: MKN-45; test: Potency index, ratio of gefitinib IC50 to compound IC50 for human MKN45 cells; assay type: functional
[17] = Antifibrotic activity against TGF-induced Wistar rat cardiac fibroblasts assessed as inhibition of cell proliferation after 12 hrs by MTT assay; assay type: functional
[18] = system: RAW264.7; test: Anti-inflammatory activity in mouse RAW264.7 cells assessed as inhibition of LPS-induced TNFalpha mRNA level at 2.5 ug/ml preincubated for 2 hrs followed by LPS-stimulation measured after 8 hrs by RT-PCR method relative to control; assay type: functional
[19] = system: RAW264.7; test: Anti-inflammatory activity in mouse RAW264.7 cells assessed as inhibition of LPS-induced TGFbeta mRNA level at 5 ug/ml preincubated for 2 hrs followed by LPS-stimulation measured after 8 hrs by RT-PCR method relative to control; assay type: functional
[20] = system: RAW264.7; test: Anti-inflammatory activity in mouse RAW264.7 cells assessed as inhibition of LPS-induced TGFbeta mRNA level at 2.5 ug/ml preincubated for 2 hrs followed by LPS-stimulation measured after 8 hrs by RT-PCR method relative to control; assay type: functional
[21] = system: RAW264.7; test: Anti-inflammatory activity in mouse RAW264.7 cells assessed as inhibition of LPS-induced TNFalpha mRNA level at 10 ug/ml preincubated for 2 hrs followed by LPS-stimulation measured after 8 hrs by RT-PCR method relative to control; assay type: functional
[22] = system: RAW264.7; test: Anti-inflammatory activity in mouse RAW264.7 cells assessed as inhibition of LPS-induced TGFbeta mRNA level at 10 ug/ml preincubated for 2 hrs followed by LPS-stimulation measured after 8 hrs by RT-PCR method relative to control; assay type: functional
[23] = system: RAW264.7; test: Anti-inflammatory activity in mouse RAW264.7 cells assessed as inhibition of LPS-induced TGFbeta mRNA level preincubated for 2 hrs followed by LPS-stimulation measured after 8 hrs by RT-PCR method; assay type: functional, cell-based
[24] = system: RAW264.7; test: Anti-inflammatory activity in mouse RAW264.7 cells assessed as inhibition of LPS-induced TNFalpha mRNA level at 5 ug/ml preincubated for 2 hrs followed by LPS-stimulation measured after 8 hrs by RT-PCR method relative to control; assay type: functional
[25] = system: RAW264.7; test: Anti-inflammatory activity in mouse RAW264.7 cells assessed as inhibition of LPS-induced TNFalpha mRNA level preincubated for 2 hrs followed by LPS-stimulation measured after 8 hrs by RT-PCR method; assay type: functional, cell-based

Vascular endothelial growth factor receptor 2, sequence (P35968 whole entry): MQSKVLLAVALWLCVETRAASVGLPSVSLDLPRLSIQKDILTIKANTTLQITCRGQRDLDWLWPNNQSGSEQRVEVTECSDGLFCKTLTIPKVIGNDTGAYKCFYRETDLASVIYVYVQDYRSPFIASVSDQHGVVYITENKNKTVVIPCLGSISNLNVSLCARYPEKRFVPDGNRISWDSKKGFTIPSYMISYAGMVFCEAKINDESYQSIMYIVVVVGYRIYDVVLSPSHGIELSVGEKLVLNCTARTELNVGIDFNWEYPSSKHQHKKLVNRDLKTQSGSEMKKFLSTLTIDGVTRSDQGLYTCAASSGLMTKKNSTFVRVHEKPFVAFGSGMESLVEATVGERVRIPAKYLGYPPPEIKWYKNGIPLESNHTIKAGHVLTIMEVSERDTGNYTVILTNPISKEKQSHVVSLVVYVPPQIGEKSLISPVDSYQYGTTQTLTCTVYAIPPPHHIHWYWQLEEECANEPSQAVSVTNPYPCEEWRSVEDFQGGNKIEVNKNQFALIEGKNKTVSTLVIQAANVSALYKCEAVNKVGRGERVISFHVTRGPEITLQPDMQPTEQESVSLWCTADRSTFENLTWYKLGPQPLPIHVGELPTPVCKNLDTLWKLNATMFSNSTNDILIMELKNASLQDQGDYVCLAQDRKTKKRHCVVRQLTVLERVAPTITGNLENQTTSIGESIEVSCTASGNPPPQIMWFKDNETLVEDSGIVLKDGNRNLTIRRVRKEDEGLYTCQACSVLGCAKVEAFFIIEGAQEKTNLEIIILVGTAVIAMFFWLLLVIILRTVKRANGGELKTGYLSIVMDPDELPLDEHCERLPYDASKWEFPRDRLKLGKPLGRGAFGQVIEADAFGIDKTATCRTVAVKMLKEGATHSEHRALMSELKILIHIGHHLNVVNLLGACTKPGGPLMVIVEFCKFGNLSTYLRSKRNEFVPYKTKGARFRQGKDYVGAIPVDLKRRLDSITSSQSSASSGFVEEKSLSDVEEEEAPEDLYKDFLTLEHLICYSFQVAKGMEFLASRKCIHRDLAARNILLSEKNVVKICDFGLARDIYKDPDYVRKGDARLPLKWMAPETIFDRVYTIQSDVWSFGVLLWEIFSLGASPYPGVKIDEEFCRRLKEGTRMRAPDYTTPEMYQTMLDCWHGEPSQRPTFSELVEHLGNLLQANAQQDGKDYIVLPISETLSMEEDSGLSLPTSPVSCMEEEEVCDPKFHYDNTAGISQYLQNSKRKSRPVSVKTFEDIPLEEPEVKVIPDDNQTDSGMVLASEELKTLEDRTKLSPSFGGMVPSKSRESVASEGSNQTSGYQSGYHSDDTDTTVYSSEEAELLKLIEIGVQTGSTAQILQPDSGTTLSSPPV
Epidermal growth factor receptor (Homo sapiens, UniProt P00533), sequence (P00533 whole entry): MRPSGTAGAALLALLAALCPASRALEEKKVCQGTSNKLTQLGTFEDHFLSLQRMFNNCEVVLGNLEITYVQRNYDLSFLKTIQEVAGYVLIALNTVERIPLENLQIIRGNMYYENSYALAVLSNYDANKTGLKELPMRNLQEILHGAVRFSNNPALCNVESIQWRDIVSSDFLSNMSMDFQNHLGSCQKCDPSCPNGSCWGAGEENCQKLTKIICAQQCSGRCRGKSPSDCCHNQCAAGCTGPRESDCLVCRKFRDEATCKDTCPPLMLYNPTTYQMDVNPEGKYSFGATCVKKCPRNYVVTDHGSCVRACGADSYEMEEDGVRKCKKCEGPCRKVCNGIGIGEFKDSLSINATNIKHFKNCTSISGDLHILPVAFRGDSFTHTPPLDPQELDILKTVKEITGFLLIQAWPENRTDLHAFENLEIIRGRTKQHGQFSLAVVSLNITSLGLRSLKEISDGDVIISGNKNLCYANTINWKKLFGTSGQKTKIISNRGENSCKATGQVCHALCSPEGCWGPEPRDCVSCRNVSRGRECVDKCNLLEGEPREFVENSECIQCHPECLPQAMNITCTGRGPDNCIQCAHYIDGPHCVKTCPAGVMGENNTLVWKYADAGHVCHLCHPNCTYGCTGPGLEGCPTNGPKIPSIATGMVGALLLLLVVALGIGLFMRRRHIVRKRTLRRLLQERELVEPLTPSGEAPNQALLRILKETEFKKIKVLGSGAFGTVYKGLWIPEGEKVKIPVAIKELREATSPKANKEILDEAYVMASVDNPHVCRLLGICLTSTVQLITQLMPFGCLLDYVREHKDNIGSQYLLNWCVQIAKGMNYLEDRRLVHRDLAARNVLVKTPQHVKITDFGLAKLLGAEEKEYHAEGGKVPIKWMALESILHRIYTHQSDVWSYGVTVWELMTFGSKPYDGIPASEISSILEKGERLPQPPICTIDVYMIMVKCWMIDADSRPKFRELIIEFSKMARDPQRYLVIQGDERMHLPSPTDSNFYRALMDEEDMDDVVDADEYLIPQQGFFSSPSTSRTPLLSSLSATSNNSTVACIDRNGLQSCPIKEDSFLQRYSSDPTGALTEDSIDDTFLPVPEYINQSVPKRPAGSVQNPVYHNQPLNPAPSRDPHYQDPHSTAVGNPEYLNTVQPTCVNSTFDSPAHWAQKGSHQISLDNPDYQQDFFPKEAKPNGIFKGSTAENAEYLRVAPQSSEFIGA
Epidermal growth factor receptor (Homo sapiens, UniProt P00533, L858R/T790M), sequence (P00533 25-1210 T790M/L858R limits assumed): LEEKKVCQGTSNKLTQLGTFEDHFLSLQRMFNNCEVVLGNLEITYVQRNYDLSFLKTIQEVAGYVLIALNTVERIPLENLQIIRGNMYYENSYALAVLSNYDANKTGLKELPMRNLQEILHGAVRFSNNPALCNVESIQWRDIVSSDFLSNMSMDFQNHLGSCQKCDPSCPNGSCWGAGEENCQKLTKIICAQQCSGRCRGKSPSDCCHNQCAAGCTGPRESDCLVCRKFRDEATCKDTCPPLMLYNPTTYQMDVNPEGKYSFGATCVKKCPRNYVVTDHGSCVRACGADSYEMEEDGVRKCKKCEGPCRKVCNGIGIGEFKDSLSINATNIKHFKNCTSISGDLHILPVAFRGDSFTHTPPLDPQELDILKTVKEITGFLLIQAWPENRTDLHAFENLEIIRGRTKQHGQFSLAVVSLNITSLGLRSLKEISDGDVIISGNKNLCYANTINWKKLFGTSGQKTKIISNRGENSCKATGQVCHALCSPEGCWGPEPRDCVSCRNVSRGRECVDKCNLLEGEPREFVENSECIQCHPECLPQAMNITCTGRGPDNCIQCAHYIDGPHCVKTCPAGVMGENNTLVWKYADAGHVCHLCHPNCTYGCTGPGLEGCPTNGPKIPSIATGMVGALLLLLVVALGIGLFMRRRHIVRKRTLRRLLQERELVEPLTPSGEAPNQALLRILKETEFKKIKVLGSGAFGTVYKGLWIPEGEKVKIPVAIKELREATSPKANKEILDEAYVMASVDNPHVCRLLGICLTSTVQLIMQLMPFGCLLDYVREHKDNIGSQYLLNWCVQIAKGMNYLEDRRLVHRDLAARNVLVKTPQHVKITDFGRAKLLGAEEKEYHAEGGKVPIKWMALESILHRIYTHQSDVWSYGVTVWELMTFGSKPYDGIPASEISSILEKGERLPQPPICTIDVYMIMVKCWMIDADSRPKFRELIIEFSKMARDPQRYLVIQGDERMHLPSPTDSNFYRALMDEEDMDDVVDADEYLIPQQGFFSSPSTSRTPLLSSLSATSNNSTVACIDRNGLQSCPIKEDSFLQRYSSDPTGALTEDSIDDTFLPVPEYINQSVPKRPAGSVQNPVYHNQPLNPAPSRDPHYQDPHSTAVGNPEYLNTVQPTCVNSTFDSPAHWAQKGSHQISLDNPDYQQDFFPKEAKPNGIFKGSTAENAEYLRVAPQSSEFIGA

| SMILES | inhibition at 20 µM [1] | IC50 [3] | IC50 [6] | IC50 [7] | IC50 [8] | further results |
| --- | --- | --- | --- | --- | --- | --- |
| O=C(N/N=C/c1ccc(C(F)(F)F)cc1)N1CCc2ncnc(Nc3cccc(C(F)(F)F)c3)c2C1 | 65 to 83% | – | – | – | – | – |
| O=C(N/N=C/c1ccc(Br)cc1)N1CCc2ncnc(Nc3cccc(Br)c3)c2C1 | 65 to 83% | 6.56 µM | 6.93 µM | 51 µM | 23.6 µM | inhibition [2]: Active; inhibition [4]: Active; inhibition [5]: Active |
| O=C(N/N=C/c1cccc([N+](=O)[O-])c1)N1CCc2ncnc(Nc3ccc(F)c(Cl)c3)c2C1 | – | 43.1 µM | 34.8 µM | 86.9 µM | > 200 µM | – |
| CSc1ccc(/C=N/NC(=O)N2CCc3ncnc(Nc4ccc(F)c(Cl)c4)c3C2)cc1 | 65 to 83% | – | – | – | – | Activity [2]: <1.9 µM |
| O=C(CCc1nc2ccccc2s1)N1CCc2ncnc(Cc3ccc(F)cc3)c2C1 | 68% | – | – | – | – | IC50 [9]: 0.00259 µM; IC50 [10]: 0.0104 µM |
| O=C(N/N=C/c1cccc(Br)c1)N1CCc2ncnc(Nc3cccc(Br)c3)c2C1 | – | – | – | – | – | inhibition [2]: Active; inhibition [4]: Active; inhibition [5]: Active |
| Cc1ccc(/C=N/NC(=O)N2CCc3ncnc(Nc4ccc(F)c(Cl)c4)c3C2)cc1C | – | 15.6 µM | 11.5 µM | 6.83 µM | 18.1 µM | – |
| O=C(N/N=C/c1ccco1)N1CCc2ncnc(Nc3cccc(Br)c3)c2C1 | – | 47.1 µM | > 200 µM | > 200 µM | 65.7 µM | – |
| O=C(N/N=C/c1cccs1)N1CCc2ncnc(Nc3cccc(C(F)(F)F)c3)c2C1 | 65 to 83% | 42.4 µM | 24.6 µM | 169 µM | 36.4 µM | Activity [2]: <1.9 µM |
| O=C(N/N=C/c1ccc(F)cc1Cl)N1CCc2ncnc(Nc3cccc(Br)c3)c2C1 | – | 1.61 µM | 0.99 µM | 15.7 µM | 1.71 µM | IC50 [11]: 0.133 µM; inhibition [2]: Active; inhibition [4]: Active; Ratio IC50 [12]: 3.3; Ratio IC50 [13]: 7.6; inhibition [5]: Active; IC50 [14]: 0.94 µM; IC50 [15]: 0.018 µM; Ratio IC50 [16]: 6.1 |
| O=C(N/N=C/c1cc(F)c(F)cc1Cl)N1CCc2ncnc(Nc3ccc(F)c(Cl)c3)c2C1 | 65 to 83% | 7.55 µM | 10.4 µM | 46.1 µM | 7.33 µM | IC50 [11]: 0.17 µM; IC50 [17]: 1.91 µM; IC50 [10]: 0.0384 µM; IC50 [15]: 0.0423 µM |
| O=C(N/N=C/c1ccc(F)cc1)N1CCc2ncnc(Nc3ccc(F)c(Cl)c3)c2C1 | – | 11.4 µM | 16.9 µM | 64.5 µM | 10.8 µM | – |
| O=C(N/N=C/c1ccc(F)cc1)N1CCc2ncnc(Nc3cccc(Br)c3)c2C1 | – | 2.27 µM | 1.79 µM | 37.6 µM | 2.49 µM | inhibition [2]: Active; inhibition [4]: Active; inhibition [5]: Active |
| N#Cc1ccc(/C=N/NC(=O)N2CCc3ncnc(Nc4ccc(F)c(Cl)c4)c3C2)cc1 | – | 42.6 µM | 35.8 µM | 67.5 µM | 52.3 µM | – |
| O=C(N/N=C/c1ccc(F)cc1)N1CCc2ncnc(Nc3cccc(C(F)(F)F)c3)c2C1 | – | 6.37 µM | 4.23 µM | 55.6 µM | 4 µM | – |
| O=C(N/N=C/c1cccs1)N1CCc2ncnc(Nc3ccc(F)c(Cl)c3)c2C1 | 83% | > 200 µM | 96.3 µM | 33 µM | 57.3 µM | IC50 [11]: 0.237 µM; Activity [2]: <1.9 µM; IC50 [15]: 0.0625 µM |
| O=C(N/N=C/c1ccc(C(F)(F)F)cc1)N1CCc2ncnc(Nc3ccc(F)c(Cl)c3)c2C1 | 65 to 83% | 37.8 µM | 36.4 µM | 36.8 µM | 21.4 µM | Activity [2]: 0.79 µM; Activity [4]: 2.1 µM; Activity [5]: 3.87 µM |
| O=C(N/N=C/c1ccccc1)N1CCc2ncnc(Nc3cccc(Br)c3)c2C1 | – | 22.7 µM | 16.4 µM | 37.8 µM | 22.4 µM | Activity [2]: <1.9 µM |
| O=C(N/N=C/c1cccnc1)N1CCc2ncnc(Nc3cccc(Br)c3)c2C1 | – | 72.1 µM | > 200 µM | > 200 µM | > 200 µM | – |
| O=C(N/N=C/c1ccccc1)N1CCc2ncnc(Nc3ccc(F)c(Cl)c3)c2C1 | – | 31.5 µM | 7.47 µM | 28.8 µM | 22.9 µM | – |
| O=C(N/N=C/c1cccs1)N1CCc2ncnc(Nc3cccc(Br)c3)c2C1 | 65 to 83% | 50.2 µM | > 200 µM | 122 µM | > 200 µM | Activity [2]: <1.9 µM |
| O=C(N/N=C/c1ccc(Br)cc1)N1CCc2ncnc(Nc3cccc(C(F)(F)F)c3)c2C1 | 65 to 83% | 11.5 µM | 16.8 µM | 61.4 µM | 11.4 µM | – |
| Cc1ccc(/C=N/NC(=O)N2CCc3ncnc(Nc4cccc(C(F)(F)F)c4)c3C2)cc1 | 77% | 4.96 µM | 2.91 µM | 21.3 µM | 3.43 µM | IC50 [11]: 0.152 µM; Activity [2]: 1.05 µM; inhibition at 2.5 µg/mL [18]: 37%; inhibition at 5 µg/mL [19]: 65%; inhibition at 2.5 µg/mL [20]: 46%; inhibition at 10 µg/mL [21]: 72%; IC50 [17]: 1.49 µM; inhibition at 10 µg/mL [22]: 86%; IC50 [10]: 0.0291 µM; inhibition [23]: Dose-dependent effect; IC50 [14]: 3.22 µM; IC50 [15]: 0.0242 µM; inhibition at 5 µg/mL [24]: 54%; inhibition [25]: Dose-dependent effect |
| O=C(N/N=C/c1ccc(Br)cc1)N1CCc2ncnc(Nc3ccc(F)c(Cl)c3)c2C1 | 65 to 83% | 14.1 µM | 13.5 µM | > 200 µM | 12.1 µM | – |
